The subject of one assay is Alternaria solani. The experiment in a line: Liquid culture test in well plates: Alternaria solani (early blight of tomato/potato), Example 1-2. The class given is cell-based. The settings on record: for inhibition at 0.0012 ppm: component (B) alone at 0.0012 ppm. As for the experimental part:
Mycelia fragments or conidia suspensions of a fungus, prepared either freshly from liquid cultures of the fungus or from cryogenic storage, are directly mixed into nutrient broth. DMSO solutions of the test compound (max. 10 mg/mL) is diluted with 0.025% Tween20 by factor 50 and 10 μL of this solution is pipetted into a microtiter plate (96-well format). […] The test plates are incubated in the dark at 24° C. and 96% relative humidity (rh). […]
Conidia of the fungus from cryogenic storage were directly mixed into nutrient broth (PDB potato dextrose broth). After placing a DMSO solution of the test compositions into a microtiter plate (96-well format) the nutrient broth containing the fungal spores was added.

Another assay relates to Botrytis cinerea. The experiment in a line: Liquid culture test in well plates: Botrytis cinerea (Gray mould), Example 1-1. Type of assay: cell-based. As for the experimental part:
Mycelia fragments or conidia suspensions of a fungus, prepared either freshly from liquid cultures of the fungus or from cryogenic storage, are directly mixed into nutrient broth. DMSO solutions of the test compound (max. 10 mg/mL) is diluted with 0.025% Tween20 by factor 50 and 10 μL of this solution is pipetted into a microtiter plate (96-well format). […] The test plates are incubated in the dark at 24° C. and 96% relative humidity (rh). The inhibition of fungal growth is determined photometrically and visually after 3-7 days, depending on the pathosystem, and percent antifungal activity relative to the untreated check is calculated.
Conidia of the fungus from cryogenic storage were directly mixed into nutrient broth (PDB potato dextrose broth). After placing a DMSO solution of the test compositions into a microtiter plate (96-well format), the nutrient broth containing the fungal spores was added.

[1] abbreviates: Botrytis cinerea, component (B) alone at 0.0003 ppm, 72 hours.
Where [2] appears, read: Botrytis cinerea, component (B) alone at 0.0006 ppm, 72 hours, read-out: (B) inhibition.
The mark [3] stands for this setting: Botrytis cinerea, component (B) alone at 0.0012 ppm, 72 hours, read-out: (B) inhibition.
Where [4] appears, read: Alternaria solani, component (B) alone at 0.0025 ppm, 48 hours, read-out: (B) inhibition.
[5] abbreviates: Botrytis cinerea, component (B) alone at 0.0025 ppm, 72 hours.
Where [6] appears, read: Botrytis cinerea, component (B) alone at 0.0050 ppm, 72 hours.
Where [7] appears, read: component (B) alone at 0.0050 ppm, 48 hours.
The mark [8] stands for this setting: component (B) alone at 0.0003 ppm, 72 hours.
Setting [9] is: component (B) alone at 0.0006 ppm, 72 hours.
[10] abbreviates: component (B) alone at 0.0050 ppm, 72 hours.
Setting [11] is: component (B) alone at 0.0012 ppm, 72 hours.

Several values for one entry are separate records, joined by “and”; a condition that tells them apart may be missing. Equal entries are not always repeated. Where two headings read alike, the source gives them in different places. *1 amine or outer side, *2 acyl side, *3 side chain or, on linkers, in order; H or OH if unused. Where a SMILES comes first, the peptide text is derived from it. [ ]: non-standard residue; d: D form. ξ: configuration not given here. ξNMeVal(3-OH) = CNC(C(=O)O)C(C)(C)O; NMeF = CN[CH](Cc1ccccc1)C(=O)O; X1 = CCC(C)C(O[*:1])C(=O)[*:2]; NMeV = CN[CH](C(=O)O)C(C)C

We go through eleven compounds from patent US12527322B2, “Fungicidal compositions” (SYNGENTA CROP PROTECTION AG, priority 2020, dated 2026).

The term inhibition denotes the change of the read-out against control, counted positive when it falls. `Cc1ccc2c(ncn2C2=NC(C)(C)C(F)(F)c3c(F)cccc32)c1C` [B-8, 1-(4,5-dimethylbenzimidazol-1-yl)-4,4,5-trifluoro-3,3-dimethyl-isoquinoline]: the inhibition at 0.0012 ppm in the assay on Alternaria solani (Alternaria solani, 48 hours) is 38%; in the assay on Botrytis cinerea (setting [3]) it was 50%. This compound also had an inhibition at 0.0003 ppm in the assay on Botrytis cinerea (setting [1]) of 22%. Moreover, the inhibition at 0.0006 ppm in the assay on Botrytis cinerea (setting [2]) stood at 40%.

With `Cc1ccc2c(C3=NC(C)(C)C(F)(F)c4c(F)cccc43)cnn2c1C` [B-5, 1-(6,7-dimethylpyrazolo[1,5-a]pyridin-3-yl)-4,4,5-trifluoro-3,3-dimethyl-isoquinoline], the inhibition at 0.0012 ppm in the assay on Alternaria solani (Alternaria solani, 48 hours) came out at 30%; in the assay with Botrytis cinerea (setting [3]), 40%. Moreover, the figures for the inhibition at 0.0025 ppm with Alternaria solani (setting [4]) and with Botrytis cinerea (setting [5]) were 56% and 57%, respectively. Besides, in the assay on Botrytis cinerea (setting [2]), the inhibition at 0.0006 ppm was 17%. Besides, in the assay on Botrytis cinerea (setting [6]), at 0.005 ppm the inhibition was 75%.

As to `CCC(C)C1NC(=O)C2CCCN2C(=O)C(Cc2ccccc2)N(C)C(=O)C(Cc2ccccc2)NC(=O)C(C(C)C)N(C)C(=O)C(C(C)CC)OC(=O)C(C(C)(C)O)N(C)C(=O)C(CC(C)C)NC(=O)C(C(C)C)N(C)C1=O` (stereo not shown) [Aureobasidin A] (cyclo([ξNMeVal(3-OH)][X1][NMeV]F[NMeF]PI[NMeV]L); configuration not given here), the inhibition at 0.0001 ppm with Alternaria solani (Alternaria solani, 48 h, read-out: (A) inhibition, Aureobasidin A (A) alone at 0.0001 ppm) stood at 9%. For the same compound, the inhibition at 0.0025 ppm in the assay on Alternaria solani (Alternaria solani, 48 h, read-out: (A) inhibition, Aureobasidin A (A) alone at 0.0025 ppm) was 20%. For the same compound, the inhibition at 0.005 ppm with Alternaria solani (Alternaria solani, 48 h, read-out: (A) inhibition, Aureobasidin A (A) alone at 0.0050 ppm) amounted to 5%. Besides, the inhibition at 0.01 ppm in the assay on Alternaria solani (Alternaria solani, 48 h, read-out: (A) inhibition, Aureobasidin A (A) alone at 0.0100 ppm) is 17%. For the same compound, the inhibition at 0.04 ppm in the assay on Alternaria solani (Alternaria solani, 48 h, read-out: (A) inhibition, Aureobasidin A (A) alone at 0.0400 ppm) was determined as 36%. The “(A) inhibition” value was 3% in the assay with Alternaria solani (Aureobasidin A (A) alone at 0.0050 ppm, 48 hours); 14% in the assay with Alternaria solani (Aureobasidin A (A) alone at 0.0100 ppm, 48 hours); 9% and 1% in the assay with Botrytis cinerea (Aureobasidin A (A) alone at 0.0003 ppm, 72 hours); 6% in the assay with Botrytis cinerea (Aureobasidin A (A) alone at 0.0006 ppm, 72 hours); 32% in the assay with Botrytis cinerea (Aureobasidin A (A) alone at 0.0200 ppm, 72 hours). For the same compound, the inhibition at 0.0002 ppm in the assay on Botrytis cinerea (Botrytis cinerea, 72 h, read-out: (A) inhibition, Aureobasidin A (A) alone at 0.0002 ppm) is 5%. In the assay on Botrytis cinerea (Botrytis cinerea, 72 h, read-out: (A) inhibition, Aureobasidin A (A) alone at 0.0006 ppm), the inhibition at 0.0006 ppm worked out at 9%. In addition, the inhibition at 0.0012 ppm in the assay with Botrytis cinerea (Botrytis cinerea, 72 h, read-out: (A) inhibition, Aureobasidin A (A) alone at 0.0012 ppm) was 9%.

As for `Cc1ccc2c(C3=NC(C)(C)C(F)(F)c4cc(F)ccc43)cnn2c1C` [B-6, 1-(6,7-dimethylpyrazolo[1,5-a]pyridin-3-yl)-4,4,6-trifluoro-3,3-dimethyl-isoquinoline], the inhibition at 0.0006 ppm in the assay on Alternaria solani (Alternaria solani, component (B) alone at 0.0006 ppm, 48 hours) is 22%; in the assay on Botrytis cinerea (setting [2]), 25%. The inhibition at 0.0012 ppm in the assay with Alternaria solani (Alternaria solani, 48 hours) is 39%; with Botrytis cinerea (setting [3]) it was 34%. The inhibition at 0.0025 ppm was found to be 59% with Alternaria solani (setting [4]) and 68% with Botrytis cinerea (setting [5]). In the assay with Botrytis cinerea (setting [6]), this compound displayed an inhibition at 0.005 ppm of 84%.

For “N-[(1R)-1-benzyl-1,3-dimethyl-butyl]-8-fluoro-quinoline-3-carboxamide/N-[(1S)-1-benzyl-1,3-dimethyl-butyl]-8-fluoro-quinoline-3-carboxamide [B-2]”, the “(B) inhibition” value with Alternaria solani (component (B) alone at 0.0025 ppm, 48 hours) is recorded as 0%; with Alternaria solani (setting [7]) it was 10%; with Alternaria solani (component (B) alone at 0.0100 ppm, 48 hours), 52%; with Botrytis cinerea (setting [8]) it was 2%; with Botrytis cinerea (setting [9]), 35%; with Botrytis cinerea (setting [10]) it was 70%.

For the compound `Cc1cccc2c1ncn2C1=NC(C)(C)C(F)(F)c2cc(Cl)ccc21` [B-10, 6-chloro-4,4-difluoro-3,3-dimethyl-1-(4-methylbenzimidazol-1-yl)isoquinoline], the inhibition at 0.0006 ppm in the assay on Botrytis cinerea (setting [2]) is 21%. Besides, the inhibition at 0.0012 ppm with Botrytis cinerea (setting [3]) was 39%. This compound also registered an inhibition at 0.0025 ppm in the assay with Botrytis cinerea (setting [5]) of 49%.

Take `CC1(C)N=C(c2cnc3ccccc3c2)c2ccccc2C1(F)F` [B-1, quinofumelin]: the “(B) inhibition” value in the assay on Botrytis cinerea (setting [8]) was found to be 27%; in the assay on Botrytis cinerea (component (B) alone at 0.0005 ppm, 72 hours) it was 37%.

Regarding “N-[(1R)-1-benzyl-3,3,3-trifluoro-1-methyl-propyl]-8-fluoro-quinoline-3-carboxamide/N-[(1S)-1-benzyl-3,3,3-trifluoro-1-methyl-propyl]-8-fluoro-quinoline-3-carboxamide [B-3]”, the “(B) inhibition” value is 10% in the assay on Botrytis cinerea (setting [9]), 32% in the assay on Botrytis cinerea (setting [11]) and 52% in the assay with Botrytis cinerea (setting [10]).

Regarding “N-[(1R)-1-benzyl-3-chloro-1-methyl-but-3-enyl]-8-fluoro-quinoline-3-carboxamide/N-[(1S)-1-benzyl-3-chloro-1-methyl-but-3-enyl]-8-fluoro-quinoline-3-carboxamide [B-4]”, the “(B) inhibition” value in the assay on Alternaria solani (setting [7]) came out at 32%; in the assay on Botrytis cinerea (setting [9]) it was 33%; in the assay on Botrytis cinerea (setting [11]), 46%; in the assay with Botrytis cinerea (component (B) alone at 0.0025 ppm, 72 hours) it was 60%.

As for `Cc1cccc2c(C3=NC(C)(C)C(F)(F)c4ccccc43)cnn12` [B-7, 4,4-difluoro-3,3-dimethyl-1-(7-methylpyrazolo[1,5-a]pyridin-3-yl)isoquinoline], the inhibition at 0.01 ppm with Alternaria solani (Alternaria solani, component (B) alone at 0.0100 ppm, 48 hours, read-out: (B) inhibition) was 63%. For the same compound, in the assay on Botrytis cinerea (setting [2]), the inhibition at 0.0006 ppm was 18%. In the assay with Botrytis cinerea (setting [3]), the inhibition at 0.0012 ppm is 40%.

Turning to `Cc1ccc2c(ncn2C2=NC(C)(C)C(F)(F)c3ccccc32)c1C` [B-9, 1-(4,5-dimethylbenzimidazol-1-yl)-4,4-difluoro-3,3-dimethyl-isoquinoline], the inhibition at 0.0012 ppm with Alternaria solani (Alternaria solani, 48 hours) was determined as 24%; in the assay on Botrytis cinerea (setting [3]), 45%. For the same compound, the inhibition at 0.0003 ppm in the assay on Botrytis cinerea (setting [1]) stood at 9%. Also, the inhibition at 0.0006 ppm with Botrytis cinerea (setting [2]) came out at 28%.
